Reference: ChEMBL document CHEMBL4130385, “Structure-function studies of BPP-BrachyNH2 and synthetic analogues thereof with Angiotensin I-Converting Enzyme” (Eur J Med Chem, 2017)
pIC50: −log10 of the molar value.

Assays:
[1] = molecular target: T1, Angiotensin-converting enzyme (Rattus norvegicus, UniProt P47820); assay: Inhibition of Wistar rat plasma angiotensin 1-converting enzyme using H-hippuryl-His-Leu-OH as substrate after 20 mins by fluorescence assay
T1 sequence (P47820 whole entry): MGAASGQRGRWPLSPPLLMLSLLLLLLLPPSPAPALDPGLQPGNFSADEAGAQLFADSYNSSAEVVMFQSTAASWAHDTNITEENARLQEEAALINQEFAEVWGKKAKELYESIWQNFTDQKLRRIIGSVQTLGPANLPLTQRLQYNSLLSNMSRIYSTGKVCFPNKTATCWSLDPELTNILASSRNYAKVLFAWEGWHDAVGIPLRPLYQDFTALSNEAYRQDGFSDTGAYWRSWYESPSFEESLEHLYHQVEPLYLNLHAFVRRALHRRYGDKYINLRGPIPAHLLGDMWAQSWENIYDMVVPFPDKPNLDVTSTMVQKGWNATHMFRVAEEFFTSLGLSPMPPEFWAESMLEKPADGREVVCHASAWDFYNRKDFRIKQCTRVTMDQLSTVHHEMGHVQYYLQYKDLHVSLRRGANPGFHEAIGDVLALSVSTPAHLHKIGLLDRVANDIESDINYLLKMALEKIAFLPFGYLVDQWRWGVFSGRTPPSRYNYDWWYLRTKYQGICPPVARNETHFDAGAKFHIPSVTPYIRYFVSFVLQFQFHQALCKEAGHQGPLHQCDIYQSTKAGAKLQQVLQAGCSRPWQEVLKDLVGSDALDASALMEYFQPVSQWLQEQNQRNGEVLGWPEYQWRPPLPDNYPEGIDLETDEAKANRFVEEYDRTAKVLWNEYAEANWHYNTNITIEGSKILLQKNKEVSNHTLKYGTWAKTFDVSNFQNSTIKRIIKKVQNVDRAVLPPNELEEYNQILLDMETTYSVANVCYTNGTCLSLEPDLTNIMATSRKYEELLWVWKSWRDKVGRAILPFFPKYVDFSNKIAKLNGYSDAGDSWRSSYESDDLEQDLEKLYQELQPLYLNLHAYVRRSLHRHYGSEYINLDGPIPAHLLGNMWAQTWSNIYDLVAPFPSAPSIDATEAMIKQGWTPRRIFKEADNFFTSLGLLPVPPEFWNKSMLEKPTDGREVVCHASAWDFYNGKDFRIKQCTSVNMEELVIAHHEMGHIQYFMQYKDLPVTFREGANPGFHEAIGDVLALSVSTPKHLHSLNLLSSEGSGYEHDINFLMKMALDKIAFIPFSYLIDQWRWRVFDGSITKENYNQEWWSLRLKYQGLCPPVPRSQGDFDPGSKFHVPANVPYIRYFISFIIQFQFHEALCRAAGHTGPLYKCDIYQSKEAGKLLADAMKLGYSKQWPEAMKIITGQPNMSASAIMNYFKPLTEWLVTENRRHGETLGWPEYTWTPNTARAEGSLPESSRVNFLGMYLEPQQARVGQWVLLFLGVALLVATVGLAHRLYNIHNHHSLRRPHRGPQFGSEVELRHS

[2] = (§1) Cytotoxicity against BALB/c mouse peritoneal macrophages assessed as reduction in cell viability after 48 hrs by MTT assay; assay type: cell-based, Peritoneal macrophage; conditions: BALB/c, peritoneal macrophages
Peritoneal macrophage [3] = assay: as §1; assay type: cell-based; conditions: peritoneal macrophage, 48 h
Erythrocyte = assay: Hemolytic activity against sheep blood erythrocytes at 10^-6 to 10^-4 M after 1 hr; assay type: ADME, cell-based, Ovis aries
Peritoneal macrophage [4] = assay: Cytotoxicity against BALB/c mouse peritoneal macrophages assessed as reduction in cell viability at 10^-4 M after 48 hrs by MTT assay relative to control; assay type: cell-based; conditions: 100 µM
Peritoneal macrophage [5] = assay: Cytotoxicity against BALB/c mouse peritoneal macrophages assessed as reduction in cell viability at 5 x 10^-4 M after 48 hrs by MTT assay relative to control; assay type: cell-based; conditions: 500 µM

Row | Substance | pIC50 [1] | CC50 at 48 h [2] [µM] | Activity (Peritoneal macrophage [3]) | Activity (Erythrocyte) | Activity (Peritoneal macrophage [4]) [%] | Activity (Peritoneal macrophage [5]) [%]
1 | H-PPPKVSP-NH2 | 4.76 | 81.9 | Dose-dependent effect | Non-Toxic | – | –
2 | H-WPPPKVS-NH2 | 3.79 | 33600 | – | Non-Toxic | 7.7 | 14.8
3 | H-WPPPKVSP-NH2 | 5.26 | 176 | Dose-dependent effect | Non-Toxic | – | –
